Source: patent publication US5663148A, “Anaphylatoxin receptor ligands containing lipophilic residues” (Abbott Laboratories, priority 1994, dated 1997)
Where a SMILES comes first, the peptide text is derived from it. [ ]: non-standard residue; d: D form. The star is where a group is joined. ξ: configuration not given here. X9 = CN(CCCc1ccccc1)[C@@H](CC1CCCCC1)C(=O)*; d(hhPhe) = N[C@H](CCCc1ccccc1)C(=O)O; X4 = O=C(C=Cc1ccccc1[N+](=O)[O-])*; Hydrocinnamoyl = O=C(CCc1ccccc1)*; hPhe = N[C@@H](CCc1ccccc1)C(=O)O; Cha = N[C@@H](CC1CCCCC1)C(=O)O; ξhhPhe = NC(CCCc1ccccc1)C(=O)O; X6 = O=C(c1cc2ccccc2[nH]1)*; 3Amb = NCc1cccc(C(=O)O)c1; X7 = O=C(C(O)CC1CCCCC1)*; X3 = Nc1ccccc1C=CC(=O)*; PhAc = O=C(Cc1ccccc1)*; X12 = CC(c1ccccc1)*; Ahx = NCCCCCC(=O)O; Bn = c1ccc(C*)cc1

Biological target: T1, C5a receptor (Homo sapiens, UniProt P21730)
T1 construct: from tissue; host or cells: polymorphonuclear leukocyte (PMNL) membrane fragments
T1 sequence (P21730 1-350): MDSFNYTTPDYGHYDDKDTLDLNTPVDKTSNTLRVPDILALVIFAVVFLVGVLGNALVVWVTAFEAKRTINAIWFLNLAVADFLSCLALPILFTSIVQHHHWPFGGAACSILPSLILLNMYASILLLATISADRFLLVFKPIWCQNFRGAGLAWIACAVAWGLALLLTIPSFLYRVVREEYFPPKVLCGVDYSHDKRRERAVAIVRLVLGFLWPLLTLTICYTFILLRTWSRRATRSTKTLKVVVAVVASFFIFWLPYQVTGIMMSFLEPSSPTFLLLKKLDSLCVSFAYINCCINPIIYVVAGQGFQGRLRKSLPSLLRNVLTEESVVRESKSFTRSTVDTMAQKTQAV
Experiment: Anaphylatoxin (C5a) receptor binding Ki determination, 125I-C5a on PMNL membrane fragments
Settings: read-out: Ki (In vitro C5a Receptor Binding Potency)
Procedure: The membrane-bound radiolabeled C5a was separated from the free radiolabeled C5a by filtration, and the recovered gamma radioactivity was measured. […] Free and membrane-bound ligand were separated by filtration.

SMILES	Ki [nM]
CC(C)C[C@H](NC(=O)[C@H](C)NC(=O)[C@H](CC1CCCCC1)NC(=O)[C@@H]1CCCN1C(=O)CCCCCN)C(=O)NC(CCCc1ccccc1)C(=O)N[C@@H](CCCNC(=N)N)C(=O)O (stereo partly drawn) [Example 81, N-(6-Aminohexanoyl)-Prolyl-{(2S)-2-Amino-3-cyclohexylpropanoyl}-Alanyl-Leucyl-{(+)-2-Amino-5-phenylpentanoyl}-Arginyl-OH] (H-[Ahx]P[Cha]AL[ξhhPhe]R-OH)	110
CC(C)C[C@H](NC(=O)CNC(=O)[C@@H](N)CSCc1ccccc1)C(=O)N[C@H](CCCc1ccccc1)C(=O)N[C@@H](CCCNC(=N)N)C(=O)O [Example 90, H-Cysteinyl(S-benzyl)-Glycyl-Leucyl-{(R)-2-Amino-5-phenylpentanoyl}-Arginyl-OH] (H-C(Bn)GL[d(hhPhe)]R-OH)	180
CC(C)C[C@H](NC(=O)CNC(=O)[C@@H](N)CSC(C)c1ccccc1)C(=O)N[C@H](CCCc1ccccc1)C(=O)N[C@@H](CCCNC(=N)N)C(=O)O (stereo partly drawn) [Example 91, H-Cysteinyl(S-1-phenethyl)-Glycyl-Leucyl-{(R)-2-Amino-5-phenylpentanoyl}-Arginyl-OH] (H-C(X12)GL[d(hhPhe)]R-OH)	390
CC(C)C[C@H](NC(=O)CNC(=O)CCc1ccccc1)C(=O)N[C@H](CCCc1ccccc1)C(=O)N[C@@H](CCCNC(=N)N)C(=O)O [Example 92, N-(3-Phenylpropanoyl)-Glycyl-Leucyl-{(R)-2-Amino-5-phenylpentanoyl}-Arginyl-OH] (Hydrocinnamoyl-GL[d(hhPhe)]R-OH)	750
CC(C)C[C@H](NC(=O)CNC(=O)Cc1ccccc1)C(=O)N[C@H](CCCc1ccccc1)C(=O)N[C@@H](CCCNC(=N)N)C(=O)O [Example 93, N-Phenylacetyl-Glycyl-Leucyl-{(R)-2-Amino-5-phenylpentanoyl}-Arginyl-OH] (PhAc-GL[d(hhPhe)]R-OH)	170
CC(C)C[C@H](NC(=O)CNC(=O)[C@H](CC1CCCCC1)N(C)CCCc1ccccc1)C(=O)N[C@H](CCCc1ccccc1)C(=O)N[C@@H](CCCNC(=N)N)C(=O)O [Example 103, N-(3-Phenylpropyl)-N-methyl-{(2S)-2-Amino-3-cyclohexylpropanoyl}-Glycyl-Leucyl-{(R)-2-Amino-5-phenylpentanoyl}-Arginyl-OH] (X9-GL[d(hhPhe)]R-OH)	1320
CC(C)C[C@H](NC(=O)CNC(=O)C=Cc1ccccc1N)C(=O)N[C@H](CCCc1ccccc1)C(=O)N[C@@H](CCCNC(=N)N)C(=O)O [Example 106, N-(2-Aminocinnamoyl)-Glycyl-Leucyl-{(R)-2-Amino-5-phenylpentanoyl}-Arginyl-OH] (X3-GL[d(hhPhe)]R-OH)	410
CC(C)C[C@H](NC(=O)CNC(=O)C=Cc1ccccc1[N+](=O)[O-])C(=O)N[C@H](CCCc1ccccc1)C(=O)N[C@@H](CCCNC(=N)N)C(=O)O [Example 107, N-(2-Nitrocinnamoyl)-Glycyl-Leucyl-{(R)-2-Amino-5-phenylpentanoyl}-Arginyl-OH] (X4-GL[d(hhPhe)]R-OH)	87
CC(C)C[C@H](NC(=O)[C@H](C)NC(=O)[C@H](CC1CCCCC1)NC(=O)[C@@H]1CCCN1C(=O)[C@H](CCCCN)NC(=O)CN)C(=O)N[C@@H](CSCc1ccccc1)C(=O)N[C@@H](CCCNC(=N)N)C(=O)O [Example 108, H-Glycyl-Lysyl-Prolyl-{(2S)-2-Amino-3-cyclohexylpropanoyl}-Alanyl-Leucyl-Cysteinyl(S-benzyl)-Arginyl-OH] (H-GKP[Cha]ALC(Bn)R-OH)	4800
N=C(N)NCCC[C@H](NC(=O)C(CCCc1ccccc1)NC(=O)c1cccc(CNC(=O)[C@H](CC2CCCCC2)NC(=O)[C@@H]2CCCN2C(=O)CCCCCN)c1)C(=O)O (stereo partly drawn) [Example 109, N-(6-Aminohexanoyl)-Prolyl-{(2S)-2-Amino-3-cyclohexylpropanoyl}-(3-Aminomethylbenzoyl)-{(+)-2-Amino-5-phenylpentanoyl}-Arginyl-OH] (H-[Ahx]P[Cha][3Amb][ξhhPhe]R-OH)	4800
CC(C)C[C@H](NC(=O)CNC(=O)[C@@H](N)Cc1ccccc1)C(=O)N[C@H](CCCc1ccccc1)C(=O)N[C@@H](CCCNC(=N)N)C(=O)O [Example 116, H-Phenylalanyl-Glycyl-Leucyl-{(R)-2-Amino-5-phenylpentanoyl}-Arginyl-OH] (H-FGL[d(hhPhe)]R-OH)	630
CC(C)C[C@H](NC(=O)CNC(=O)[C@@H](N)CCc1ccccc1)C(=O)N[C@H](CCCc1ccccc1)C(=O)N[C@@H](CCCNC(=N)N)C(=O)O [Example 117, H-{(S)-2-Amino-4-phenylbutyryl}-Glycyl-Leucyl-{(R)-2-Amino-5-phenylpentanoyl}-Arginyl-OH] (H-[hPhe]GL[d(hhPhe)]R-OH)	370
CC(C)C[C@H](NC(=O)CNC(=O)[C@@H](N)Cc1c[nH]c2ccccc12)C(=O)N[C@H](CCCc1ccccc1)C(=O)N[C@@H](CCCNC(=N)N)C(=O)O [Example 130, H-Tryptophanyl-Glycyl-Leucyl-{(R)-2-Amino-5-phenylpentanoyl}-Arginyl-OH] (H-WGL[d(hhPhe)]R-OH)	140
CC(C)C[C@H](NC(=O)CNC(=O)c1cc2ccccc2[nH]1)C(=O)N[C@H](CCCc1ccccc1)C(=O)N[C@@H](CCCNC(=N)N)C(=O)O [Example 131, N-[(Indol-2-yl)-carbonyl]-Glycyl-Leucyl-{(R)-2-Amino-5-phenylpentanoyl}-Arginyl-OH] (X6-GL[d(hhPhe)]R-OH)	560
CC(C)C[C@H](NC(=O)CNC(=O)C(O)CC1CCCCC1)C(=O)N[C@H](CCCc1ccccc1)C(=O)N[C@@H](CCCNC(=N)N)C(=O)O (stereo partly drawn) [Example 132, N-(3-Cyclohexyl-2-hydroxypropionyl)-Glycyl-Leucyl-{(R)-2-Amino-5-phenylpentanoyl}-Arginyl-OH] (X7-GL[d(hhPhe)]R-OH)	420
